Columns and labels:
Assay in all cases: Post-emergence herbicidal glasshouse test, percentage damage to the plant
Type in all cases: in vivo
[1] = system: Echinochloa crus-galli (ECHCG)
Procedure: (§1) Seeds of a variety of test species are sown in standard soil in pots:—Solanum nigrum (SOLNI), Amaranthus retoflexus (AMARE), Setaria faberi (SETFA), Alopecurus myosuroides (ALOMY), Echinochloa crus-galli (ECHCG), Ipomoea hederacea (IPOHE). After 8 days cultivation (post-emergence) under controlled conditions in a glasshouse (at 24/16° C., day/night; 14 hours light; 65% humidity), the plants are sprayed with an aqueous spray solution derived from the formulation of the technical active ingredient in acetone/water (50:50) solution containing 0.5% Tween 20 (polyoxyethelyene sorbitan monolaurate, CAS RN 9005-64-5). Compounds are applied at 1000 g/ha. The test plants are then grown in a glasshouse under controlled conditions in a glasshouse (at 24/16° C., day/night; 14 hours light; 65% humidity) and watered twice daily. After 13 days, the test is evaluated for the percentage damage caused to the plant. The biological activities are shown in the following table on a five point scale (5=80-100%; 4=60-79%; 3=40-59%; 2=20-39%; 1=0-19%). A comparative experiment is conducted to compare the biological efficacy of a compound of the present invention with those of WO 2011/045271. The test is performed as outlined above using the following compounds. Three different application rates are employed (250 g/ha, 500 g/ha and 1000 g/ha).

Setaria faberi (SETFA) = system: Setaria faberi (SETFA)
Procedure: as §1

Solanum nigrum (SOLNI) = system: Solanum nigrum (SOLNI)
Procedure: as §1

[2] = system: Alopecurus myosuroides (ALOMY)
Procedure: as §1

[3] = system: Ipomoea hederacea (IPOHE)
Procedure: as §1

[4] = system: Amaranthus retoflexus (AMARE)
Procedure: as §1

[5] = post-emergence, 1000 g/ha, evaluated after 13 days
[6] = comparative experiment, rate 250 g/ha
[7] = comparative experiment, rate 500 g/ha
[8] = comparative experiment, rate 1000 g/ha

Row | Compound | POST Application ECHCG, percentage damage (five point scale) [1, 5] | POST Application SETFA, percentage damage (five point scale) (Setaria faberi (SETFA); [5]) | POST Application SOLNI, percentage damage (five point scale) (Solanum nigrum (SOLNI); [5]) | POST Application ALOMY, percentage damage (five point scale) [2, 5] | POST Application IPOHE, percentage damage (five point scale) [3, 5] | POST Application AMARE, percentage damage (five point scale) [4, 5] | further results
1 | CN1N=CC(=O)C(n2ccc3ccccc32)C1=O (stereo not drawn) [Compound 1.014] | 4 (4=60-79%) | 1 (1=0-19%) | 5 (5=80-100%) | 1 (1=0-19%) | 4 (4=60-79%) | 3 (3=40-59%) | –
2 | CN1N=CC(=O)C(n2nc(Cl)c3ccccc32)C1=O (stereo not drawn) [Compound 1.001, 4-(3-chloroindazol-1-yl)-2-methyl-pyridazine-3,5-dione] | 4 (4=60-79%) | 2 (2=20-39%) | 5 (5=80-100%) | 1 (1=0-19%) | 5 (5=80-100%) | 5 (5=80-100%) | POST Application ECHCG, percentage damage (five point scale) [1, 6]: 2 (2=20-39%); POST Application ECHCG, percentage damage (five point scale) [1, 7]: 3 (3=40-59%); POST Application ECHCG, percentage damage (five point scale) [1, 8]: 3 (3=40-59%); POST Application SETFA, percentage damage (five point scale) (Setaria faberi (SETFA); [6]): 1 (1=0-19%); POST Application SETFA, percentage damage (five point scale) (Setaria faberi (SETFA); [7]): 1 (1=0-19%); POST Application SETFA, percentage damage (five point scale) (Setaria faberi (SETFA); [8]): 3 (3=40-59%); POST Application SOLNI, percentage damage (five point scale) (Solanum nigrum (SOLNI); [6]): 5 (5=80-100%); POST Application SOLNI, percentage damage (five point scale) (Solanum nigrum (SOLNI); [7]): 5 (5=80-100%); POST Application SOLNI, percentage damage (five point scale) (Solanum nigrum (SOLNI); [8]): 5 (5=80-100%); POST Application ALOMY, percentage damage (five point scale) [2, 6]: 2 (2=20-39%); POST Application ALOMY, percentage damage (five point scale) [2, 7]: 2 (2=20-39%); POST Application ALOMY, percentage damage (five point scale) [2, 8]: 2 (2=20-39%); POST Application IPOHE, percentage damage (five point scale) [3, 6]: 5 (5=80-100%); POST Application IPOHE, percentage damage (five point scale) [3, 7]: 5 (5=80-100%); POST Application IPOHE, percentage damage (five point scale) [3, 8]: 5 (5=80-100%); POST Application AMARE, percentage damage (five point scale) [4, 6]: 4 (4=60-79%); POST Application AMARE, percentage damage (five point scale) [4, 7]: 4 (4=60-79%); POST Application AMARE, percentage damage (five point scale) [4, 8]: 4 (4=60-79%)
3 | CN1N=CC(=O)C(n2ccc3cc(Br)ccc32)C1=O (stereo not drawn) [Compound 1.004] | 1 (1=0-19%) | 1 (1=0-19%) | 4 (4=60-79%) | 1 (1=0-19%) | 1 (1=0-19%) | 1 (1=0-19%) | –
4 | Cc1nn(C)c(=O)c(-n2c(Cl)c(Cl)c3ccccc32)c1OC(=O)SC(C)C [Compound 3.001, [5-(2,3-dichloroindol-1-yl)-1,3-dimethyl-6-oxo-pyridazin-4-yl]isopropylsulfanylformate] | 1 (1=0-19%) | 1 (1=0-19%) | 5 (5=80-100%) | 1 (1=0-19%) | 5 (5=80-100%) | 5 (5=80-100%) | –
5 | CC1=NN(C)C(=O)C(n2c(Cl)c(Br)c3ccccc32)C1=O (stereo not drawn) [Compound 1.021] | 2 (2=20-39%) | 1 (1=0-19%) | 5 (5=80-100%) | 2 (2=20-39%) | 5 (5=80-100%) | 5 (5=80-100%) | –
6 | CC1=NN(C)C(=O)C(n2c(C)cc3ccccc32)C1=O (stereo not drawn) [Compound 4.026] | 2 (2=20-39%) | 3 (3=40-59%) | 5 (5=80-100%) | 2 (2=20-39%) | 5 (5=80-100%) | 4 (4=60-79%) | –
7 | CC(=O)Oc1c(C)nn(C)c(=O)c1-n1nc(Cl)c2ccccc21 [Compound 3.006] | 4 (4=60-79%) | 1 (1=0-19%) | 5 (5=80-100%) | 2 (2=20-39%) | 5 (5=80-100%) | 4 (4=60-79%) | –

Reference: patent US9049864B2, “Pyridazinone herbicidal compounds” (Syngenta Limited, priority 2012, dated 2015)
